Experimental data from US20180296530A1, “METHOD FOR TREATING ATOPIC DERMATITIS” (priority 2015, published 2018).
“Also recorded” adds a separate entry of the source.

Assays:
[1] = Clinical trial: adverse events; assay type: in vivo, human; settings: oral melatonin 3 mg/d, 4 weeks, children with AD
Method: Visits occurred at the start of the prescreening and on the first and last day of each treatment period, during which AD disease severity was assessed, blood and urine samples were collected, questionnaires evaluating subjective symptoms were filled out, and pill count and adverse events were recorded.

[2] = system: DNCB-induced AD mouse model; experiment: Example 6: dermatitis severity, topical melatonin cream in DNCB-induced AD mouse model; assay type: in vivo, Balb/c mice; settings: for clinical score (dermatitis): day 1 to day 14, Day 15, DNCB group 10, Control 0
Method: Macroscopic assessment of the severity of dermatitis was determined by a scoring method as described previously. Briefly, the degree of each sign were scored as 0 (none), 1 (mild), 2 (moderate), and 3 (severe). This scoring was based on the severity of erythema (hemorrhage), edema, excoriation (erosion), and dryness (scaling). The total score (minimum 0 and maximum 12) from the four symptoms of each mouse were taken as the score for that mouse. Ear thickness was measured with a thickness gauge (Digimatic Indicator, Mitsutoyo, Tokyo). This assessment was performed on the last day of the experiment (Day 20) by an investigator who was blind to the grouping of the animals.
Four- to six-week-old Balb/c mice were maintained under specific pathogen-free conditions. Animals were housed in an air-conditioned animal room (25±1° C.; relative humidity 40±5%) and were fed a laboratory diet and distilled water. Animal care and handling protocols were approved by the Animal Committee of the College of Medicine, Taiwan University, and all procedures were conducted in accordance with the U.S. National Institute of Health guidelines.
The protocol for establishing an AD mouse model in this Example was modified from those described previously. Briefly, referring to FIG. 12, DNCB-induced AD mouse model was prepared by the repeated applications of 20 μL of 1% DNCB in acetone/olive oil (4:1) to the outer and inner surfaces of mouse ears and 100 μL of the same solution to the shaved back skin once on days 1 and 4. Mice of Control group were treated with the identical volumes of vehicle.
The DNCB-sensitized mice were randomly assigned to one of four groups: DNCB, DNCB+0.1% topical melatonin, DNCB+1% topical melatonin, DNCB+8% topical melatonin. Each group (including Control group) consisted of 3 mice. On days 8 and 11, sensitized mice was challenged by applying 0.2% DNCB to the skin surfaces. For the three groups treated with topical melatonin groups, 0.1 mg of topical melatonin cream was given twice a day from day 1 to day 14. The cream base consisted of a mixture of tefose 63, octyldodecyl myristate, sorbic acid, methyl paraben sodium, ddH2O, and apricot kernel oil. For Control and DNCB groups, 0.1 mg of cream base was given twice a day from day 1 to day 14. This experiment was ended at Day 15.
The dermatitis severity of each mouse treated with or without melatonin was evaluated in the same manner as those described in Example 5. This evaluation was performed on the last day of the experiment (Day 15) by an investigator who was blind to the grouping of the animals.

[3] = system: Patients aged 1 to 18 years with physician-diagnosed AD; experiment: Randomized double-blind placebo-controlled crossover clinical trial: AD severity by SCORAD index; assay type: in vivo, human; set-up: key to mean SCORAD index, first treatment period, before / mean SCORAD index, first treatment period, after: SCORAD index, range 1-103, higher = worse symptoms; key to Objective SCORAD index, Difference: objective SCORAD, range 0-83, higher = worse symptoms
Method: A randomized clinical study with a double-blind, placebo-controlled crossover design was performed. The institutional review committee of National Taiwan University Hospital approved the study protocol. This study conformed to the principles of the Declaration of Helsinki. Patients or their guardians provided written informed consent. Patients aged 1 to 18 years with physician-diagnosed AD involving at least 5% of the total body surface area were recruited from the pediatric and dermatology outpatient departments of the National Taiwan University Hospital from Aug. 1, 2012, through Jan. 31, 2013. Follow-up was completed on Apr. 13, 2013. Those patients with sleep problems occurring more than 3 days per week during the previous 3 months were eligible. The study participants were randomly assigned to 2 groups in a 1:1 ratio, with a block size of 4. One group received melatonin first and then placebo, and the other group received placebo first and then melatonin. The melatonin and placebo tablets were identical in appearance. The participants and their caregivers, treating physicians, those assessing outcomes, and those analyzing the data were all masked to group assignment. […] They were then randomized to receive oral melatonin, 3 mg/d (General Nutrition Corporation), or placebo (Standard Chem & Pharm Co, Ltd) at bedtime for 4 weeks. After a 2-week washout period, participants crossed to the alternate treatment. In this clinical trial, the primary study outcome was the Scoring Atopic Dermatitis (SCORAD) index for the evaluation of AD severity. Secondary outcomes included the objective sleep variables measured by actigraphy, the patient's subjective description of the change in sleep and dermatitis severity, the sleep variables measured by polysomnography, nocturnal urinary levels of 6-sulfatoxymelatonin, and serumtotal and allergen-specific IgE levels. Severity of AD was assessed using the SCORAD index (range, 1-103, with greater scores indicating worse symptoms) by the same physician (Y.-S.C.) blinded to the treatment randomization. The SCORAD index includes subjective visual analog scale scores from 0 to 10 (with greater numbers indicating worse symptoms) for degree of pruritus and sleep loss, which are referred to as the pruritus score and the subjective sleep score, respectively, in this study. The objective SCORAD index, which excludes the SCORAD score for subjective symptoms (range, 0-83, with greater scores indicating worse symptoms), was also used for analysis.

[4] = after vs before oral melatonin 3 mg/d, 4 weeks, mean
[5] = melatonin vs placebo, adjusted for age and sex

COc1ccc2[nH]cc(CCNC(C)=O)c2c1 [Melatonin, melatonin]
adverse events [1]: no adverse event was reported; also recorded: no adverse effect of medication was reported
clinical score (dermatitis) ([2]; 0.1% melatonin cream twice a day): 7
gross skin findings ([2]; 0.1%, 1%, and 8% topical melatonin, 8% improved the skin severity most): improved the gross skin findings in a dose-dependent manner
clinical score (dermatitis) ([2]; 8% melatonin cream twice a day): 2
Ear thickness ([2]; after 8% melatonin treatment, FIG. 14): significantly improved
SCORAD index vs placebo, Wilcoxon signed rank test ([3]; FIGS. 2A and 2C, sensitivity analysis): apparently decreased the SCORAD index
patients who subjectively believed that their dermatitis had improved ([3]; after melatonin treatment, 17 of 36 (placebo 12 of 38 [32%])): 47%
Subjective sleep score, After ([3]; after oral melatonin 3 mg/d at bedtime for 4 weeks, mean): 3.8
Pruritus score, After ([3]; after oral melatonin 3 mg/d at bedtime for 4 weeks, mean, score 0 to 10): 5.1
Objective SCORAD index, After ([3]; after oral melatonin 3 mg/d at bedtime for 4 weeks, mean, score 0 to 83): 31.3
SCORAD index, After ([3]; after oral melatonin 3 mg/d at bedtime for 4 weeks, mean, score 0 to 103): 40.2
Objective SCORAD index, Difference [3, 4]: −8.2
Pruritus score, Difference [3, 4]: −0.6
SCORAD index, Difference [3, 4]: −9.9
Subjective sleep score, Difference [3, 4]: −1.1
mean reduction of the SCORAD index ([3]; in 4 weeks, oral melatonin 3 mg/d): 9.9
decrease of the SCORAD index compared with placebo ([3]; linear mixed-effects model, adjusted for age and sex): 9.1
decrease of the objective SCORAD index compared with placebo ([3]; linear mixed-effects model, no significant carryover effect (P=0.81), significant period effect (P=0.02)): 8.7
mean SCORAD index, first treatment period, after ([3]; melatonin group, first treatment period, after oral 3 mg/d for 4 weeks): 42.3
mean SCORAD index, first treatment period, before ([3]; melatonin group, first treatment period, before treatment): 49.5
mean SCORAD index, second treatment period, after ([3]; melatonin group, second treatment period, after oral 3 mg/d for 4 weeks): 38.3
mean SCORAD index, second treatment period, before ([3]; melatonin group, second treatment period, before treatment): 48.7
Subjective sleep score, Before ([3]; melatonin phase, before treatment, mean): 4.8
Pruritus score, Before ([3]; melatonin phase, before treatment, mean, score 0 to 10): 5.6
Objective SCORAD index, Before ([3]; melatonin phase, before treatment, mean, score 0 to 83): 38.6
SCORAD index, Before ([3]; melatonin phase, before treatment, mean, score 0 to 103): 49.1
Objective SCORAD index, Difference of Treatment Effect From the Linear Mixed-Effects Model, Mean [3, 5]: −8.7
Pruritus score, Difference of Treatment Effect From the Linear Mixed-Effects Model, Mean [3, 5]: 0.0
SCORAD index, Difference of Treatment Effect From the Linear Mixed-Effects Model, Mean [3, 5]: −9.1
Subjective sleep score, Difference of Treatment Effect From the Linear Mixed-Effects Model, Mean [3, 5]: −0.4
